“And” between values parts separate entries of the source, which are not always exact repeats. Identical values can stand only once. “Also recorded” adds a separate entry of the source. Square brackets hold non-standard residues; d marks the D form. Peptide text beside a SMILES is read from it.
Key:
[1] = system: primary mouse keratinocytes (1° MK); experiment: UVB-evoked Ca++ signaling in primary mouse keratinocytes (fluo-4); assay type: cell-based; settings: for ET1-augmented UVB-induced Ca++ transients: co-exposure to ET1; for UVB-evoked Ca++ signal: GSK205 20 μM
Procedure: Ca++ imaging of 1° MK was conducted following routine procedures. For UVB stimulation, a customized device was built. The system comprised a printed circuit board for electrical interconnects and mechanical support and an ultraviolet light-emitting diode (UV LED).
The operating wavelength was 295 nm (FIG. 2A), with a full-width half-max of 12 nm. The optical power was 500 mW. The focal point was aimed at the plane of the upper surface of the quartz coverslip, which was used to minimize UV absorption along the optical path towards the cells (FIG. 2A-C). The optical intensity at the focal point was estimated to be 150 mW/mm^2.
(§1) Ca++ imaging of mouse 1° MK in response to chemical activation of TRPV4 was conducted after loading with 2 μM fura2-AM, following a ratiometric Ca2+ imaging protocol with 340/380 nm […] for dual excitation. Ratios of emissions were acquired at 0.5 Hz. ΔR/R0 was determined as the fraction of the increase of a given ratio over baseline ratio, divided by baseline ratio. For stimulation of cells with UVB, where fura-2 was not suitable because of the proximity of stimulation with 340/380 nm and 295 nm, 2 μM fluo4-AM was used instead. Ca++ imaging was carried out at 488 nm excitation, acquisition of emissions at 0.5 Hz, expressed as ΔF/F0. In the custom-built UV optical system, UV LEDs were capped with a ball lens, a transparent optical window in the shape of a hemispherical lens (FIG. 2B). The LED output optical beam focused at 15-20 mm from the lens, with a spot diameter of approximately 1.5-2.0 mm (FIG. 2C). […] The thermal equilibration stage was set for physiological temperature.

[2] = system: primary mouse keratinocytes (1° MK); experiment: ET1 secretion by non-stimulated primary mouse keratinocytes (ELISA); assay type: cell-based
Procedure: FIGS. 8A-8D: Central role for KC TRPV4 in UVB-evoked Ca^++ signaling and nocifensive behavior—ET1-related supplementary findings. (FIG. 8A) Augmentation of GSK101-evoked Ca^++ signaling by ET1. Shown are averaged Ca^++ measurements (fura-2) in response to 5 nM GSK101. Note the increase in signal in response to co-exposure to ET1. (FIG. 8B) ET1 secretion by non-stimulated 1° MK depends on TRPV4 and PLC. Shown are relative ET1 concentrations (determined by ELISA, pg/mL; vehicle-treated and WT control normalized to 100) in supernatant of non-stimulated 1° MK. Note the clear dependence on TRPV4, as indicated by a 50% reduction in Trpv4^−/− 1° MK. […] There is also down-regulation of ET1 secretion by a specific inhibitor of PLC (U73122), and by an ET-convertase inhibitor, CGS35066, which served as a control compound. In addition, PLC-inhibitor robustly affects ET1 secretion in WT and Trpv4^−/− 1° MK. (FIG. 8C) ET1 expression by UVB-exposed 1° MK depends on TRPV4 and PLC—immunocytochemistry. Shown is specific ET1 immunolabeling in 1° MK, exposed to UVB using the UVB-LEDs, as for Ca^++ imaging. Use of the UVB-LED device precluded application of a ET1 ELISA, only irradiated cells could be examined. […] (FIG. 8D) ET1 expression by UVB-exposed 1° MK depends on TRPV4 and PLC—quantification of immunocytochemistry.

[3] = system: primary mouse keratinocytes (1° MK); experiment: ET1 immunocytochemistry in UVB-exposed primary mouse keratinocytes; assay type: cell-based; settings: 295 nm UVB-LED
Procedure: 1° MK were exposed to UVB using the UV optical system (295 nm LED). 24 hours later the cells were fixed and fluorescently immunolabeled for ET1. Digital images were captured and subjected to morphometry.
Mouse keratinocytes were cultured on collagen coated quartz coverslips and then stimulated from the bottom using the previously mentioned UV optical system using the 295 nm LED. 24 hours later the cells were fixed in 4% formaldehyde in PBS for 20 minutes, permeabilized with 0.1% Triton X-100 in PBS for 10 minutes, washed, then blocked in 10% normal goat serum in PBS for 45 minutes. Coverslips were incubated overnight with primary antibody mouse anti-ET1 (1:200; Abcam), washed three times in PBS and incubated with secondary antibody for 2 hours at 25° C. Coverslips were washed three times in PBS, once with double-distilled H2O. Digital images were captured using a 40× immersion lens on the BX61 Olympus upright microscope. Morphometric analysis was conducted using ImageJ freeware with tailored regions-of-interest.

TRPV4 (rat) = molecular target: T1, TRPV4 (rat) (Rattus norvegicus, UniProt Q9ERZ8); experiment: Ca++ imaging in N2a cells with directed expression of TRPV4, activation with GSK101; assay type: cell-based
T1 construct: expressed in transfected cells; host or cells: N2a (mouse neuroblastoma) cells
T1 sequence (Q9ERZ8 whole entry): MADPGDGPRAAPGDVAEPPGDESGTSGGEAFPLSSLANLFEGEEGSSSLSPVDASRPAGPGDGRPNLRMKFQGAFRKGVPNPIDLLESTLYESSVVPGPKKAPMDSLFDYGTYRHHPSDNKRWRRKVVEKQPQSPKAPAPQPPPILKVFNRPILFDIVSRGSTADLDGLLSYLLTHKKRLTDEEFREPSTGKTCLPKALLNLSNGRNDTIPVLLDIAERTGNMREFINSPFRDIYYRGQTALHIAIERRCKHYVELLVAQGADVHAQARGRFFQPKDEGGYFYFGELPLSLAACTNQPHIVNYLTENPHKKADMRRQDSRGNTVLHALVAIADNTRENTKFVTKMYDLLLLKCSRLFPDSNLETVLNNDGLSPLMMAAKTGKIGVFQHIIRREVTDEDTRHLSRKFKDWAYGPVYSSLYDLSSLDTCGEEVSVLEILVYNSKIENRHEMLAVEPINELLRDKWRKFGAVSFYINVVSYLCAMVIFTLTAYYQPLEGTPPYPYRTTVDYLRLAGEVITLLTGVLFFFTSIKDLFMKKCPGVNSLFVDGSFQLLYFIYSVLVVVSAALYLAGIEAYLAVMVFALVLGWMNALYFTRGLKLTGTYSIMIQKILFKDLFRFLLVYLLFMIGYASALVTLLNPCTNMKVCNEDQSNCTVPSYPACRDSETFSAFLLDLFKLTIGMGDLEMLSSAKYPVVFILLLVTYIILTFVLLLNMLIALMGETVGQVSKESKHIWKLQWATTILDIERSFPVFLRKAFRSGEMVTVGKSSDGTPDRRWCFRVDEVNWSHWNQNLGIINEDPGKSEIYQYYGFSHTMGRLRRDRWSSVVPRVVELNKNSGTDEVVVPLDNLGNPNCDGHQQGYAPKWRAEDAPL
Excerpt: FIGS. 26A-26B: Assessment of compounds in N2a cells with directed expression of TRPV4. […] The number on each bar corresponds to average peak ΔCa++ concentrations in ≈100 cells. […] Plot generated from averaged peak ΔCa++ concentration of 75 cells per data-point.

TRPV4 [4] = molecular target: TRPV4 (Homo sapiens, UniProt Q9HBA0); experiment: TRPV4-mediated calcium influx in N2a cells with targeted expression of human TRPV4; assay type: cell-based; set-up: expressed in transfected cells; host or cells: N2a cells; settings: 2.5 μM inhibitor, pre-incubation 10 min, 10 nM GSK101
Chain of TRPV4 (Homo sapiens, UniProt Q9HBA0) (Q9HBA0 whole entry): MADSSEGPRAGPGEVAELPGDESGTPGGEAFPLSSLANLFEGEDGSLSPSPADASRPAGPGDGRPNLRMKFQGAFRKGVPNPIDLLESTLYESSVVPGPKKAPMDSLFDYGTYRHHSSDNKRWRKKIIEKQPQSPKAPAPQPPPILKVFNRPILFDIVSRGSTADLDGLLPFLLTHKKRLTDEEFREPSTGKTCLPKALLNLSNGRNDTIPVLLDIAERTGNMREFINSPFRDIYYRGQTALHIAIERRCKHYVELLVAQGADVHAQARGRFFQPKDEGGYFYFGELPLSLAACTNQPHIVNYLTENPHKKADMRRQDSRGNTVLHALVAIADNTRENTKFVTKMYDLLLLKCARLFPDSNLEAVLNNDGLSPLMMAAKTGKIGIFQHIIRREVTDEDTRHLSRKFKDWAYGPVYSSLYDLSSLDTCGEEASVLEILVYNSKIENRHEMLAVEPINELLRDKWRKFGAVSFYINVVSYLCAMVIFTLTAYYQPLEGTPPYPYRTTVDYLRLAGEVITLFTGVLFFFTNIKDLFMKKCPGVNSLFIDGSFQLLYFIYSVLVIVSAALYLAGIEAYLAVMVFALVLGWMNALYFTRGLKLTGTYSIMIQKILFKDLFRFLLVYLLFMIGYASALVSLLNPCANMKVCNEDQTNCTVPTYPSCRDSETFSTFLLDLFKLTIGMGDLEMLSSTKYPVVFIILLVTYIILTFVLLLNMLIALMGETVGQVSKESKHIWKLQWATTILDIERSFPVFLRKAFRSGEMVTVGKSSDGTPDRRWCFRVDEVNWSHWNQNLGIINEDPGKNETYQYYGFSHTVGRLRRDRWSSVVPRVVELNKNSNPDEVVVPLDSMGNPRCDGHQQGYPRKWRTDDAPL

[5] = system: Trpv4−/− mice, whisker-pad injection of formalin; experiment: Formalin-evoked trigeminal irritant pain, systemic (i.p.) compound, Trpv4−/− mice; assay type: in vivo, mouse; settings: 25 mg/kg i.p.
Procedure: FIGS. 31A-31D: 16-8 and 16-19 effectively attenuate formalin-evoked trigeminal irritant pain. (FIG. 31A) Time-course of nocifensive behavior in WT mice following whisker-pad injection of 4% formalin. The mice were pre-injected (i.p., 10 mg/kg; 15 min before formalin) with GSK205, 16-8 or 16-19. Note effective reduction of nocifensive behavior in the late “neural” phase by compounds 16-8, 16-19, not by GSK205. (FIG. 31B) Cumulative response binned into 3 phases: acute phase (0-5 min), interphase (5-15 min), and late “neural” phase (15-45 min). […] (FIG. 31C) As in (FIG. 31A), but also including Trpv4^−/− mice. Compounds were applied i.p. 15 min before formalin challenge, at 10 mg/kg except established TRPA1 blocker, A967079 (25 mg/kg). Previously-established attenuated nocifensive behavior in early and late phase in Trpv4^−/− mice was recapped, which was reduced further by TRPA1 blocker, A967079. (FIG. 31D) As in (FIG. 31B), plus inclusion of Trpv4^−/− mice. Robust effects of TRPA1-blocker, A967079, were mimicked equi-potently by 16-8 and 16-19 for early phase, and by 16-8 for late phase, partially by 16-19 for late phase. (FIG. 31A, FIG. 31C) show averaged behavioral metrics per time-point, bars in (FIG. 31B, FIG. 31D) represent mean±SEM; for (D) *p<0.05; #P<0.005, one-way ANOVA; for all panels n=5-8 mice/group.
Compounds were tested for their effect in reducing pain using an in vivo pain model in mice. For mouse formalin-evoked irritant behavior measurements, mice were well-fed, well-rested, and tested at the same time of day, at the same time-point of their circadian rhythm. They were allowed to acclimate to a plexiglas chamber for at least 30 min before testing, and received 10 μL subcutaneous injection of 4% of formalin (diluted from an aqueous solution of commercial 37% formaldehyde with normal saline (NS)) through a 30-gauge needle into the right whiskerpad, as further detailed in Luccarini et al. (J. Pain, 2006, 7, 908-914). Normal saline was used as control injection. After injection, mice were immediately placed back into the chamber and the rubbing behavior was recorded by a private consumer-type video-camera for a 45 min observation period. The recording time was divided into 9 blocks of 5 min, and a nociceptive score was determined per block by measuring the time that the animals spent rubbing the injected area predominantly with the ipsilateral fore-paw and rarely with hind-paw. This rubbing behavior with fore-paw is evoked by pain, which is distinct from itch behavior. Behavioral analysis was conducted by observers blinded to treatment.
We observed significant residual irritant-pain behavior in all phases of the formalin model in Trpv4^−/− mice, consistent with our previous report^13 (FIG. 31C,D). […] A reference TRPA1-inhibitory compound, A967079, was used at 25 mg/kg body weight as a positive control to inhibit TRPA1, based on a previous report^38. Reduction of pain behavior in Trpv4^−/− mice was striking, more than 50% in the late neural phase. […] We conclude that compound 16-8 also functions as a potent TRPA1-inhibitor in an in-vivo irritant pain model specifically designed to assess the contribution of TRPA1 to trigeminal irritant pain, and at least as potent as an established reference TRPA1-antagonistic compound.

TRPV4 [6] = molecular target: T2, TRPV4 (Mus musculus, UniProt Q9EPK8); experiment: Ca++ transients in primary mouse keratinocytes on chemical activation of TRPV4 (GSK101, 4α-PDD); assay type: cell-based; settings: 1° MK
T2 construct: endogenous in cells; host or cells: primary mouse epidermal keratinocytes (1° MK)
T2 sequence (Q9EPK8 whole entry): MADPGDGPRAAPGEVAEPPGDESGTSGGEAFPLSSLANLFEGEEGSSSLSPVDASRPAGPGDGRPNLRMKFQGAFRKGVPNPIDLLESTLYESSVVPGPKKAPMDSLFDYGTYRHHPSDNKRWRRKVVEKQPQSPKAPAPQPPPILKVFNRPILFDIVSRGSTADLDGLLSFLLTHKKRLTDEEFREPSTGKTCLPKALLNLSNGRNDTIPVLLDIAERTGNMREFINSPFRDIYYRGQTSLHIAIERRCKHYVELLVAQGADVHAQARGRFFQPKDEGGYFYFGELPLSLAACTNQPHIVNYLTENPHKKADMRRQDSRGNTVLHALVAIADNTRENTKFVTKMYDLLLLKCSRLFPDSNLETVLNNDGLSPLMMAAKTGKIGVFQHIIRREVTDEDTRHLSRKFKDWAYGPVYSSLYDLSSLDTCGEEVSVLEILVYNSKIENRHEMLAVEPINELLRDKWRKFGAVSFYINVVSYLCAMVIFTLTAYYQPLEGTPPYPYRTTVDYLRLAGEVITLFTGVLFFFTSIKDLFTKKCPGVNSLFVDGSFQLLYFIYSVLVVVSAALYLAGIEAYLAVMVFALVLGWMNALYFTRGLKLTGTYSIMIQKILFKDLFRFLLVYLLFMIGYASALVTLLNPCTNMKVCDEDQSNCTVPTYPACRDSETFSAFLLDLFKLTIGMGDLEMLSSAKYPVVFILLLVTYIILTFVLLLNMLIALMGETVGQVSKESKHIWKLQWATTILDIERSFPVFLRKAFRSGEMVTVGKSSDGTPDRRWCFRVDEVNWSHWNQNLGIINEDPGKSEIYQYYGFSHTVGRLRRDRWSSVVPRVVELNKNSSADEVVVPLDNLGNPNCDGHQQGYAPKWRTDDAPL
Procedure: as §1, with “temperature. We confirmed the non-thermal nature of UVB stimulation using the customized 295 nm LED device in a dedicated experiment (FIG. 2D), thus confirming the specific modality of stimulation as UVB.” for “temperature.”

[7] = system: WT and oil-treated iKO mice; experiment: Nocifensive behavior after ET1 footpad injection (von Frey); assay type: in vivo, mouse; settings: 10 μL 100 nM ET-1 intraplantar
Procedure: ET1 injections: After determining base-line withdrawal thresholds, each animal received an intraplantar injection of 10 μL 100 nM ET-1 plus contralateral vehicle. Thresholds were again evaluated 1 hour after injection.
Hindpaw mechanical withdrawal thresholds were determined by the automated von Frey hair method, using a 0.5 mm diameter stainless steel filament, part of an automated plantar touch stimulator (Ugo Basile, Modena, Italy). Relevant detail included pre-test acclimatization in a quiet room for 30 min, conducting the test at the same time of day and blinded observers. The stimulus was delivered to the hindpaw, automatically discontinued upon withdrawal, and its intensity recorded automatically. 6-8 trials per animal were conducted, with equal exposure of both hindpaws, leading to an average withdrawal threshold. Results are reported as […], which was calculated by subtracting post-treatment from pre-treatment measurements, expressed as % or relative to 1.0.

Molecule: CC(C)C[C@@H]1NC(=O)[C@@H](C(C)C)NC(=O)[C@@H]2CCCN2C(=O)[C@@H](CC(=O)O)NC(=O)[C@@H](Cc2c[nH]c3ccccc23)NC1=O [BQ123] (cyclo(L[dW][dD]P[dV]))
- ET1-augmented UVB-induced Ca++ transients [1]: attenuated

Molecule: CCCC[C@@H](NC(=O)[C@@H](Cc1cn(C(=O)OC)c2ccccc12)NC(=O)[C@H](CC(C)(C)C)NC(=O)N1[C@H](C)CCC[C@@H]1C)C(=O)O [BQ788]
- ET1-augmented UVB-induced Ca++ transients [1]: attenuated

Molecule: O=C(O)C(Cc1ccc2c(c1)oc1ccccc12)NCP(=O)(O)O (centres unmarked) [CGS35066]
- UVB-evoked Ca++ signal [1]: significantly diminished
- ET1 secretion, supernatant of non-stimulated 1° MK [2]: down-regulation
- ET1 immunoreactivity in UVB-exposed 1° MK [3]: significant down-regulation

Molecule: CCN(CCc1ccc(Nc2nc(-c3cccnc3)cs2)cc1)Cc1ccccc1 [Compound 16-18]
- IC50 (TRPV4 (rat); N2a cells, rat TRPV4, 5 nM GSK101, averaged peak ΔCa++, read-out: IC50, inhibition of TRPV4-mediated Ca++ influx): 810 nM and 590 nM
- increased potency versus parental compound GSK205 (TRPV4 (rat); from IC50 values, rat TRPV4 in N2a cells): ~5 fold
- inhibition of TRPV4-mediated Ca++ influx, first round screening (TRPV4 (rat); inhibitor 5 μM, 5 nM GSK101): two most potent
- inhibition of TRPV4-mediated calcium influx (peak calcium concentration) (TRPV4 [4]): most potent

Molecule: CCC(=N\O)/C(C)=C/c1ccc(F)cc1 [Compound A967079, reference compound]
- reduction of pain behavior in the late neural phase [5]: more than 50%

Molecule: COc1ccc2c(c1)CC[C@@H]1[C@@H]2CC[C@]2(C)[C@@H](NCCCCCCN3C(=O)C=CC3=O)CC[C@@H]12 [Compound U73122]
- UVB-evoked Ca++ signal [1]: virtually eliminated; also recorded: strongly reduced
- ET1 secretion, supernatant of non-stimulated 1° MK [2]: down-regulation
- ET1 immunoreactivity in UVB-exposed 1° MK [3]: significant down-regulation

Molecule: C=C(C)CCO[P@@](=O)(O)OP(=O)(O)O [IPP, isopentenyl pyrophosphate]
- UVB-evoked Ca++ signal [1]: not inhibited

Molecule: CC(C)NCCN(C(C)C)S(=O)(=O)c1ccc(Cl)cc1Cl [RN1734]
- ET1 secretion, supernatant of non-stimulated 1° MK [2]: significant down-regulation
- ET1 immunoreactivity in UVB-exposed 1° MK [3]: significant down-regulation

Molecule: ET1: endothelin-1 peptide, cognate ligand of endothelin receptors
- UVB-evoked Ca++ signal [1]: significant increase
- GSK101-evoked Ca++ transient (TRPV4 [6]; 5 nM GSK101, GSK205 20 μM): augmented
- 4α-PDD-evoked Ca++ transient (TRPV4 [6]; fura-2): significant increase
- mechanical withdrawal after footpad injection [7]: significant levels of mechanical allodynia

Source: patent US11564911B2, “Small molecule dual-inhibitors of TRPV4 and TRPA1 for sanitizing and anesthetizing” (Duke University, priority 2016, dated 2023)
